{"source": "patent US20240130957A1", "about": "“EXTRACTS OF ISOCHRYSIS SPECIES/TISOCHRYSIS SPECIES” (SYMRISE AG, priority 2020, published 2024)", "key": {"skin": {"tested_on": "skin", "conditions": "similar to the effect seen with dihydroxyacetone; cited from earlier work"}, "UVA-induced ROS": {"tested_on": "UVA-induced ROS", "experiment": "Reduction of UVA-induced ROS in organ culture of human skin (DCFH-DA)", "format": "cell-based", "method": "Organ culture of human skin was performed starting from a skin sample, exciding pieces of approximately 8×3 mm (ø×thickness). Skin samples (6 per treatment) were cultured in an air-liquid interface in a perforated ring of stainless steel in contact with culture medium (modified Williams' E medium).\nAt start of the skin culture, in parallel to untreated, the formulations 14.1 to 14.3 and 100% tocopherol acetate were applied topically on the skin samples and afterwards they were cultivated overnight. On the next day, the topical treatments were renewed for 1 hour. In parallel, culture medium with 100 μM of 2′,7′-dichlorofluorescin diacetate (DCFH-DA, Sigma #D6883) was prepared. After 1 hour of incubation of the skin samples, the culture medium was replaced by the medium containing DCFH-DA and the skin samples were incubated for 30 minutes. Then, the skin samples were washed in PBS buffer and UVA irradiation (lamp: Bio Sun by Vilber Lourmat, 60 J/cm2) was performed. Afterwards, the skin samples were harvested, cryo-fixed and cut at the cryostat for image acquisition and analysis. The image acquisition was performed using Olympus BX51 microscope and Olympus DP70 camera. Two skin sections for each skin sample were cut and the related images were acquired and analysed. Doing so, 12 images were obtained for each formulation for analysis. Image analysis was performed within the dermis area selected from the upper part by following the perimeter of the basal lamina to the deep dermis. The obtained values from were normalized upon the dimension of the selected area."}}}
{"smiles": "O=C(CO)[C@H](O)CO", "note": "[Erythrulose, D-Erythrulose]", "values": [{"measurement": "production of free radicals", "setting": "skin", "result": "increase production of free radicals"}]}
{"smiles": "CC(=O)Oc1c(C)c(C)c2c(c1C)CCC(C)(CCC[C@H](C)CCC[C@H](C)CCCC(C)C)O2", "note": "(stereo partly shown) [Tocopherol acetate]", "values": [{"measurement": "reduction of UVA-induced ROS vs untreated UVA-irradiated", "setting": "UVA-induced ROS; 100% tocopherol acetate, topical", "result": 73, "unit": "%"}, {"measurement": "Modulation vs untreated + UVA", "setting": "UVA-induced ROS; UVA 60 J/cm2", "result": "−73", "unit": "%"}, {"measurement": "Mean ROS score", "setting": "UVA-induced ROS; UVA 60 J/cm2, topical overnight and renewed 1 hour, untreated no UVA 0.015, untreated + UVA 0.573", "result": 0.157}]}
